What was measured:
[1] = target: T1, muscarinic M3 receptors (Homo sapiens, UniProt P20309); assay: Radioligand binding muscarinic M3 binding assay; conditions: for competition with [3H] N-methylscopolamine for binding to muscarinic M3 receptors: in words, refers to Table 2
T1 construct: expressed in transfected cells; host or cells: CHO cells
Procedure: (§1) The binding assay methodology was an adaptation of the methodology set out in Buckley N J, Bonner T I, Buckley C M and Brann M R (1989), Antagonist binding properties of five cloned muscarinic receptors expressed in CHO-K1 cells. Mol Pharmacol. 35(4): 469-476 and Luthin G R and Wolfe B B (1984), Comparison of [^3H]pirenzepine and [^3H]quinuclidinylbenzilate binding to muscarine cholinergic receptors in rat brain. J Pharmacol Exp Ther. 228(3):648-655.
(§2) The binding assay was performed under the following conditions:
(§3) Source: human recombinant CHO cells
(§4) Ligand: 0.8 nM [^3H] N-Methylscopolamine
(§5) Incubation Time/Temp: 2 hours at 25° C.
(§6) Incubation Buffer: 50 mM Tris-HCl, pH 7.4, 10 mM MgCl2, 1 mM EDTA
(§7) Non-specific Ligand: 1 μM Atropine
Bmax: 534 pmol/mg protein
(§8) Quantification Method: radioligand binding Significance Criteria: ≧50% of max stimulation of inhibition

[2] = test system: rats with denervation induced HDIR; assay: RIST, reversal of HISS dependent insulin resistance caused by anterior hepatic plexus denervation (Example 8); assay type: in vivo, male Spraque Dawely rats; conditions: for potentiation for reversing denervation induced HDIR: dose not stated (FIG. 1); for reversal of denervation induced HDIR: in words (FIG. 1); for % Potentiation: potentiation of denervated RIST index
Procedure: The test subjects were male Spraque Dawely rats (supplied by Charles River or The University of Manitoba) weighing between 222.0 to 375 g. The rats were separated into three test groups: For each test group, the rats were fasted for an 8 hour period and then re-fed for a 2 hour period. The rats were anesthetized with pentobarbital sodium (65 mg/kg) and were prepared surgically according to the standard animal preparation used to conduct a control RIST test (Lautt et al., 1998). After surgery the rat stabilizes for 30 minutes. Following the stabilization period and establishment of a baseline, a control RIST was carried out to show the amount of glucose needed to maintain euglycemia after a bolus administration of insulin (50 mU/kg i.v.). The animal underwent surgery to cause insulin resistance. Anterior plexus denervation and portal puncture was performed. After an hour of recovery time a post-denervation RIST was carried out. The inclusion criteria is a RIST index≧250 mg glucose/kg≦140 mg glucose/kg. For each test group, the test compound was administered at various doses μg/kg intraportal venous (0.5 mL bolus, rate of 0.05 mL/min plus 0.03 mL dead-space volume). Following administration of the test compound, a post-administration RIST was carried out and the potentiation calculated as follows: [(Reversal RIST Index−Blocked RIST Index)/Blocked RIST Index]×(100%)=% Potentiation. […] Each test group was repeated using various doses of each test compound to establish a dose-response curve. The doses were determined based upon initial findings.

[3] = test system: rats with insulin resistance produced by hepatic denervation; assay: RIST, insulin sensitivity in rats with insulin resistance produced by hepatic denervation (Examples 5-7); assay type: in vivo, male Spraque Dawely rats; conditions: total dose into the portal vein 0.001 to 0.1 μg/kg beginning 10 minutes prior to insulin (50 mU/kg i.v.); present-tense example
Procedure: The test subjects are male Spraque Dawely rats. The male rat is fasted for an 8 hour period and then re-fed for a 2 hour period. The rat is anesthetized with pentobarbital sodium (65 mg/kg) and is prepared surgically according to the standard animal preparation used to conduct a RIST test (Lautt et al., 1998). After surgery the rat stabilizes for 30 minutes.
Following the stabilization period and establishment of a baseline, a control RIST is carried out to show the amount of glucose needed to maintain euglycemia after a bolus administration of insulin (50 mU/kg i.v.).
The animal undergoes surgery to cause insulin resistance. Surgical denervation of hepatic nerves reaching the liver along the hepatic artery is done. After an hour of recovery time a RIST is then carried out.
Racemic bethanechol is administered to the rat that has been surgically denervated with a total dose into the portal vein of (0.001 to 0.1) μg/kg beginning 10 minutes prior to the insulin administration.
(R)-bethanechol is administered to the rat that has been surgically denervated with a total dose into the portal vein of (0.001 to 0.1) μg/kg beginning 10 minutes prior to the insulin administration.
(S)-bethanechol is administered to the rat that has been surgically denervated with a total dose into the portal vein of (0.001 to 0.1) μg/kg beginning 10 minutes prior to the insulin administration.

[4] = target: T2, muscarinic M1 receptors (Homo sapiens, UniProt P11229); assay: Radioligand binding muscarinic M1 binding assay; conditions: for competition with [3H] N-methylscopolamine for binding to muscarinic M1 receptors: in words, refers to Table 1
T2 sequence (P11229 1-460): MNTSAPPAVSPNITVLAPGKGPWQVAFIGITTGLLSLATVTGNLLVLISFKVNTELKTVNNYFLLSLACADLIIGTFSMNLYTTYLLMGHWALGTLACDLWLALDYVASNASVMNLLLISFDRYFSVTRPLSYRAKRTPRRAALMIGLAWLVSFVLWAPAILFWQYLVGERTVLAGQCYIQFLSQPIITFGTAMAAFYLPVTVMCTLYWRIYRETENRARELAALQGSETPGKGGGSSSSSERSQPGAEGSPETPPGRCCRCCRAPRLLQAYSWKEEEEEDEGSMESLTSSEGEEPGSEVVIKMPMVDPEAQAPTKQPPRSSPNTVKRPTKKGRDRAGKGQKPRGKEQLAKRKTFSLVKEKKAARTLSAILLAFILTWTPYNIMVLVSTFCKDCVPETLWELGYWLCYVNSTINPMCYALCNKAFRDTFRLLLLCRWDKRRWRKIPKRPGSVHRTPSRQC
Procedure: as §1, §2, §3, §4, §5, §6, §7, §8

[5] = test system: hepatic glutathione (GSH); assay: Hepatic glutathione levels in denervated rats (Bioxytech GSH420 kit); assay type: in vivo; conditions: compared to animals treated with (R)-bethanechol or racemic bethanechol; present-tense example
Procedure: Hepatic glutathione (GSH) levels are determined for test animals from Example 8 which have a control RIST of ≧170 mg glucose/kg≦250 mg glucose mg/kg.
Following the post-denervation RIST analysis, a liver sample is taken from each test animal using cork borer #4 or #5 to remove a section of liver from the left lateral liver lobe. The top and bottom (1-2 mm) of the sample are trimmed and cut into 2 equal pieces. The samples are flash frozen on dry ice in tin foil, and are labeled with the experiment number and date. The samples are stored at −80 until GSH analysis is performed. Liver GSH levels are determined using the Bioxytech GSH420 kit.

[6] = compound 100 μm, 0.8 nM [3H] N-Methylscopolamine, human recombinant CHO cells
[7] = as compared to R-bethanechol and racemic bethanechol

T1 sequence (P20309 whole entry): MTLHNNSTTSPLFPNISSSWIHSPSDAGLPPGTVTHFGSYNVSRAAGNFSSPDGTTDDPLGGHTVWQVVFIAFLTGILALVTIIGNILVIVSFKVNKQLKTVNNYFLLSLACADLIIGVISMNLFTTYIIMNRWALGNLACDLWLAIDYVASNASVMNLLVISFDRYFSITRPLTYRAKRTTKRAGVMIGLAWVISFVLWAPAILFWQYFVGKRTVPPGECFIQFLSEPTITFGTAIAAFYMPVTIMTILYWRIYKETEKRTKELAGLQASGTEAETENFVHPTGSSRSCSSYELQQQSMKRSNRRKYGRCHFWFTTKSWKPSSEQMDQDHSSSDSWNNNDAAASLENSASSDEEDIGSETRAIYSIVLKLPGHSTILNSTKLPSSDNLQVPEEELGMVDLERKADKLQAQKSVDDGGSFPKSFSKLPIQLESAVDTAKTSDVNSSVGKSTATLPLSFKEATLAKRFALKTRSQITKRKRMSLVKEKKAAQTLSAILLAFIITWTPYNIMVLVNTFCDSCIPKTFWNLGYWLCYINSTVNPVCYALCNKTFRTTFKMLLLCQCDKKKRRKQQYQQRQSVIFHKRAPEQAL

Row | Compound | competition with [3H] N-methylscopolamine for binding to muscarinic M3 receptors [1] | potentiation for reversing denervation induced HDIR [2] | reversal of denervation induced HDIR [2] | RIST index: restoration of insulin sensitivity [3] | competition with [3H] N-methylscopolamine for binding to muscarinic M1 receptors [4] | % Inhibition [1, 6] | % Inhibition [4, 6] | also measured
1 | CC(C[N+](C)(C)C)OC(N)=O (racemic) [racemic bethanechol, bethanechol] | did not compete | ca. 52% | substantial reversal | restores insulin sensitivity | did not compete |  |  | inhibition at 100 µM [1, 6]: -5%; inhibition at 100 µM [4, 6]: -4%
2 | C[C@H](C[N+](C)(C)C)OC(N)=O.[Cl-] [(R)-bethanechol, (R)-(−)-2-Carbamyloxy-1-(N,N,N-trimethyl)-propylammonium chloride] | did not compete |  | no significant reversal | does not significantly restore insulin sensitivity | did not compete | −11% | 0% | 
3 | C[C@@H](C[N+](C)(C)C)OC(N)=O.[Cl-] [(S)-bethanechol, (S)-(+)-2-Carbamyloxy-1-(N,N,N-trimethyl)-propylammonium chloride] |  | ca. 72% | substantial reversal | restores insulin sensitivity better than racemic bethanecol |  | 42% | 31% | increases in hepatic GSH levels [5]: greater increases in hepatic GSH levels; binding affinity for muscarinic M3 receptors [1, 7]: significantly higher; % Potentiation ([2]; dose 0.005 μg/kg intraportal venous): −1.81%; % Potentiation ([2]; dose 0.010 μg/kg intraportal venous): −13.01%; % Potentiation ([2]; dose 0.025 μg/kg intraportal venous): 12.24%; % Potentiation ([2]; dose 0.050 μg/kg intraportal venous): 34.66%; % Potentiation ([2]; dose 0.100 μg/kg intraportal venous): 48.29%; % Potentiation ([2]; dose 0.250 μg/kg intraportal venous): 58.16%; % Potentiation ([2]; dose 0.500 μg/kg intraportal venous): 71.19%; % Potentiation ([2]; dose 0.750 μg/kg intraportal venous): 69.08%; % Potentiation ([2]; dose 2.000 μg/kg intraportal venous): 57.21%; % Potentiation ([2]; dose 5.000 μg/kg intraportal venous): 40.27%; reversal of denervation-induced HDIR over dose range ([2]; doses ranging between 0.025 to 5.000 μg/kg, 0.250 to 2.000 μg/kg greatest % potentiation): reversed denervation-induced HDIR; binding affinity for muscarinic M1 receptors [4, 7]: significantly higher

Source: patent US20090324701A1, “COMPOSITIONS CONTAINING (S)-BETHANECHOL AND THEIR USE IN THE TREATMENT OF INSULIN RESISTANCE, TYPE 2 DIABETES, GLUCOSE INTOLERANCE AND RELATED DISORDERS” (DIAMEDICA, INC., priority 2006, published 2009)
